This note sets out measurements from PMC4589873, “A pain-inducing centipede toxin targets the heat activation machinery of nociceptor TRPV1” (Nature Communications, 2015).

Structures are written as SMILES. Entries after “also recorded” stand apart in the source; their conditions may differ. Where a SMILES comes first, the peptide text is derived from it. Bridges are numbered along the chain shown (N, C = ends).

Data set [1] is described as follows: Small unilamellar vesicle-binding assay. The class given is physicochemical. As to the method: After the film rinsed with pentane was lyophilized at −40 °C overnight, the lipid was suspended with a buffer (10 mM HEPES, 50 mM KCl at pH 7.0). POPE (1-palmitoyl-2-oleoyl-phosphatidylethanolamine, 10 mg ml^−1) and POPG (1-palmitoyl-2-oleoylphosphatidyl-Dl-glycerol, 10 mg ml^−1) were mixed in a 3:1 ratio for POPE/POPG vesicle preparation. In total, 150 mM KCl was used instead of 50 mM KCl. The suspended lipid was then sonicated (in ice water) until the solution became transparent. RhTx was mixed with 10 mg ml^−1 (total concentration) small unilamellar vesicle (SUVs). The mixture was incubated for 40 min at room temperature before ultracentrifugation. Toxin–vesicle mixtures were centrifuged at 304,000g for 150 min. The residual toxins in the supernatant were evaluated by RP-HPLC using a linear gradient of acetonitrile containing 0.1% v/v trifluoroacetic acid.

A further data set has as its system TRPV1. Nature of the data set: RhTx-induced desensitization of TRPV1 heat activation, inside-out patch. The class given is cell-based. Conditions: 10 μM RhTx in patch pipette solution, inside-out patches, heating to 55 °C, n=8. An excerpt:
For recording the RhTx-induced desensitization of TRPV1, temperature control was achieved by perfusion of preheated or room-temperature bathing solution. Hot bathing solution were maintained at expected temperature with an SH-27B in-line solution heater controlled by a TC-324C temperature controller (Warner). A solution exchanger RSC-200 with eight separate tubes to deliver room-temperature bathing solution and capsaicin. A TA-29 miniature bead thermistor (Harvard Apparatus) was placed right next to the pipette to ensure accurate monitoring of local temperature.

Data set [2] deals with mTRPV1 point mutants at D602, Y632, T634 and L461. Nature of the data set: Whole-cell current of mTRPV1 point mutants. Conditions: glycine or alanine mutation, both at 10 μM, +80 mV. Type of data set: cell-based, mouse. An excerpt: TRPV1 and TRPV3 chimeras used in this study were generated by the overlapping extension method[54] and confirmed by DNA sequencing, as described previously. Briefly, to generate V1/3S, the primer pairs (5′-[…]-3′and 5′-[…]-3′) were used. To generate other TRPV1/TRPV3 chimeras, the enzyme cutting sites by MluI were made by the primer pair (5′-[…]-3′ and 5′-[…]-3′) for TRPV1 and the primer pair (5′-[…]-3′ and 5′-[…]-3′) for TRPV3. The enzyme cutting sites by PvuI were made by the primer pair (5′-[…]-3′ and 5′-[…]-3′) for TRPV1 and the primer pair (5′-[…]-3′ and 5′-[…]-3′) for TRPV3. The enzyme cutting sites by BsiWI were made by the primer pair (5′-[…]-3′ and 5′-[…]-3′) for TRPV1 and the primer pair (5′-[…]-3′ and 5′-[…]-3′) for TRPV3. V1/3M were generated by enzyme cut and paste between MluI and PvuI sites, while V1/3L were generated by enzyme cut and paste between MluI and BsiWI sites. V1_S1S2_1, V1_S1S2_3 and V1_S1S2_3 were generated as previously reported. […]
As described in details in a previous report, macroscopic currents (in whole-cell, inside-out or outside-out configuration) as well as single-channel currents were recorded using a HEKA EPC10 amplifier with the PatchMaster software (HEKA). […] Statistical difference was determined using the Student’s t-test, and indicated by ** when reaching the significance level P<0.001.

The subject of another data set is Trpv1−/− mice. The experiment in a line: Colonic temperature in TRPV1 knockout mice. The class given is in vivo, mouse. The settings on record: Trpv1−/− mice n=3, intraperitoneal, 10 μmol kg^−1. As to the method: (§1) In vivo effects of RhTx on WT mice or Trpv1^−/− mice were examined according to protocols described previously. For the paw-licking assay, pain was induced in mice by intraplantar injection of 0.1% formalin, capsaicin (1 μmol per paw) or RhTx (1 μmol per paw). Each of the testing materials was dissolved in 100 μl saline. Control mice received the same volume of saline. Injected mice were placed individually into open polyvinyl cages (20 × 40 × 15 cm). Time spent licking the injected paw was recorded by a digital video camera during the following 40 min. For recording colonic temperature from WT or Trpv1^−/− mice, mice equipped with a copper-constantan thermocouple were individually placed in open polyvinyl cages. A data logger was connected to the thermocouple. Mice were injected intraperitoneally with 100 μl saline containing capsaicin or RhTx. The dose of capsaicin or RhTx was 10 μmol kg^−1 for these experiments. Mice in the control group received the same volume of saline.

The test system of a further data set is WT mice. The experiment in a line: Colonic temperature after intraperitoneal injection. Type of data set: in vivo, mouse. The settings on record: WT mice n=6, intraperitoneal, 10 μmol kg^−1. How it is done:
as §1

For data set [3], the system named is dorsal root ganglion (DRG) neurons. The experiment in a line: Calcium imaging of DRG neurons (Fluo-4). The settings on record: RhTx 10 μM, capsaicin 10 μM. The class given is cell-based, mouse. How it is done:
Mouse DRG neurons were acutely dissociated and maintained in a short-term primary culture according to procedures as previous descripted. DRG neurons or HEK-293T cells were loaded with Fluo-4 AM in 2 mM Ca^2+ Ringer’s solution (140 mM NaCl, 5 mM KCl, 2 mM MgCl2, 10 mM glucose, 2 mM CaCl2 and 10 mM HEPES, pH 7.4). Fluorescence images of DRG neurons and HEK-293T cells were acquired with an Olympus IX81 microscope with Hamamatsu C4742 charge-coupled device camera controlled by the MetaFluor Software (Molecular Devices). Fluo-4 was excited by a mercury vapour light source with a 500/20-nm excitation filter, while fluorescence emission was detected with a 535/30-nm emission filter. Fluorescence images were required with automated routines written in MetaMorph software (Molecular Devices) and analysed with Igor Pro (Wavemetrics).

The target in the next data set is T1, mTRPV1 (Mus musculus, UniProt Q704Y3).
T1 construct: expressed in transfected cells; host or cells: HEK-293T
Nature of the data set: Whole-cell patch-clamp of mTRPV1 expressed in HEK293 cells. The class given is cell-based. The source says: TRPV1 and TRPV3 chimeras used in this study were generated by the overlapping extension method[54] and confirmed by DNA sequencing, as described previously. Briefly, to generate V1/3S, the primer pairs (5′-[…]-3′and 5′-[…]-3′) were used. To generate other TRPV1/TRPV3 chimeras, the enzyme cutting sites by MluI were made by the primer pair (5′-[…]-3′ and 5′-[…]-3′) for TRPV1 and the primer pair (5′-[…]-3′ and 5′-[…]-3′) for TRPV3. The enzyme cutting sites by PvuI were made by the primer pair (5′-[…]-3′ and 5′-[…]-3′) for TRPV1 and the primer pair (5′-[…]-3′ and 5′-[…]-3′) for TRPV3. The enzyme cutting sites by BsiWI were made by the primer pair (5′-[…]-3′ and 5′-[…]-3′) for TRPV1 and the primer pair (5′-[…]-3′ and 5′-[…]-3′) for TRPV3. V1/3M were generated by enzyme cut and paste between MluI and PvuI sites, while V1/3L were generated by enzyme cut and paste between MluI and BsiWI sites. V1_S1S2_1, V1_S1S2_3 and V1_S1S2_3 were generated as previously reported. All mTRPV1 point mutations were constructed using the QuickChange II XL site-directed mutagenesis kit following the manufacturer’s instruction. These point mutations were sequenced to confirm that appropriate constructs were made. HEK-293T cells were cultured and transiently transfected using Lipofectamine 2,000 (Invitrogen) as previously described.
As described in details in a previous report, macroscopic currents (in whole-cell, inside-out or outside-out configuration) as well as single-channel currents were recorded using a HEKA EPC10 amplifier with the PatchMaster software (HEKA). Both pipette solution and bath solution contained 130 mM NaCl, 3 mM HEPES and 0.2 mM EDTA (pH 7.2). All recordings were performed at room temperature unless otherwise stated. A holding potential of 0 mV was used from which a testing pulse to +80 mV was applied. Statistical difference was determined using the Student’s t-test, and indicated by ** when reaching the significance level P<0.001.

The next data set concerns Trpv1−/− knockout mice. The experiment in a line: Paw-licking assay in TRPV1 knockout mice. Type of data set: in vivo, mouse. Conditions: intraplantar, 1 μmol per paw. As to the method: as §1
Data set [4] deals with voltage-gated Ca channels. Nature of the data set: Selectivity recording on voltage-gated Ca channels. Type of data set: cell-based. The settings on record: 10 μM RhTx compared to toxin-free treatment. How it is done: Supplementary Figure 3. […]
mTRPV2 (c), mTRPV3 (d) and mTRPV4 (e). (f) Treatment with 10 μM RhTx (red traces)

T1 sequence (Q704Y3 whole entry): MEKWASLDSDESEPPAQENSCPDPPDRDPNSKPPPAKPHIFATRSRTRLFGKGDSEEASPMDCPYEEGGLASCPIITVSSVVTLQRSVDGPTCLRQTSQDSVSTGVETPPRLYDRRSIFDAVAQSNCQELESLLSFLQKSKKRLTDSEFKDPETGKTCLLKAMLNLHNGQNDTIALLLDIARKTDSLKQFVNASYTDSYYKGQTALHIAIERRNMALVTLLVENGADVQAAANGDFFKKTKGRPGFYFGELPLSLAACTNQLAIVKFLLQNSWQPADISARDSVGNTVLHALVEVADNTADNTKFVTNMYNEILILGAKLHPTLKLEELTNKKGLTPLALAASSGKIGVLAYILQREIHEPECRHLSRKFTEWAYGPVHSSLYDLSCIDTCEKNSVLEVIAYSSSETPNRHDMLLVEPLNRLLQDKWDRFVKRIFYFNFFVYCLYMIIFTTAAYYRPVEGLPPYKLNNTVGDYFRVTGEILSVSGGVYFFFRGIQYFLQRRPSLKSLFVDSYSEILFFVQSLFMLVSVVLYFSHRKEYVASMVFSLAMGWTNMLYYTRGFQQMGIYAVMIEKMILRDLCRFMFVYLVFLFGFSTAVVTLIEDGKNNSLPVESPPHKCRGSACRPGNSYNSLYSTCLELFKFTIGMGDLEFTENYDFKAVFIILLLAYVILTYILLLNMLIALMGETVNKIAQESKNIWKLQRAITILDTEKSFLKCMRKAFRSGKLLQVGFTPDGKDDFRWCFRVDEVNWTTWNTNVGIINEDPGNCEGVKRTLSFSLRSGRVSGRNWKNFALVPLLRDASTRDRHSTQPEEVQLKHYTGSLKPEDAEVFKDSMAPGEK

Take `CC[C@H](C)[C@H](NC(=O)[C@@H]1CSSC[C@@H]2NC(=O)[C@H]([C@@H](C)O)NC(=O)[C@H](C(C)C)NC(=O)CNC(=O)[C@H](CC(N)=O)NC(=O)[C@@H](NC(=O)[C@@H]3CCCN3C(=O)[C@H](CC(N)=O)NC(=O)[C@H](CC(N)=O)NC(=O)[C@@H](N)CC(C)C)CSSC[C@H](NC(=O)[C@H](CCCNC(=N)N)NC(=O)[C@H](Cc3ccc(O)cc3)NC(=O)CNC(=O)[C@H](CO)NC(=O)[C@@H]3CCCN3C2=O)C(=O)N[C@@H](CO)C(=O)N[C@@H]([C@@H](C)CC)C(=O)N[C@@H](C(C)C)C(=O)N[C@@H](CC(=O)O)C(=O)N[C@@H](CCCCN)C(=O)N[C@@H](CCC(N)=O)C(=O)N1)C(=O)N[C@@H](CCCCN)C(=O)N[C@@H](CCCCN)C(=O)N[C@@H](CCC(=O)O)C(=O)O` [RhTx] (H-LNNPCNGVTCPSGYRCSIVDKQCIKKE-OH; disulfide 5-16, 10-23; N-terminus and C-terminus assumed): in [1] (0.1 mg RhTx, POPC SUVs 10 mg/ml, 10 mM HEPES, 50 mM KCl, pH 7.0, 40 min room temperature, supernatant RP-HPLC), the “RP-HPLC chromatograph before versus after treatment with POPC” value was “No difference”. Moreover, in data set [1] (0.1 mg RhTx, POPE/POPG 3:1 SUVs 10 mg/ml, 150 mM KCl, 40 min room temperature, supernatant RP-HPLC), the “RP-HPLC chromatograph before versus after treatment with POPE/POPG” value was “No difference”. Moreover, the “incorporation into the lipid membrane (initial partition experiments)” value in data set [1] (SUVs 10 mg/ml, 40 min at room temperature, ultracentrifugation 304,000g 150 min, supernatant by RP-HPLC) was “does not incorporate into the lipid membrane”. Further, the “TRPV1 heat response after extended incubation with toxin” value in the data set with TRPV1 is given as “selectively desensitized TRPV1 heat activation but not capsaicin activation; also recorded: incapable to respond to heat”. Further, in [2], the “agonist-induced current in point mutants versus WT channel” value is given as “markedly reduced”. In addition, the “core (colonic) temperature in knockout mice” value in the data set with Trpv1−/− mice was “absent”. In the data set on WT mice, the “core (colonic) temperature” value is “rapid drop in core temperature”. Also, the “intracellular calcium increase in capsaicin-responsive DRG neurons” value in [3] is reported as “nearly as strong as capsaicin”. Also, at mTRPV1, the “activation of mouse TRPV1” value is recorded as “strongly activated”. On mTRPV1 (SEM), this compound had an EC50 of 522 ± 162 nM. The compound further showed a Hill slope on mTRPV1 (whole-cell mTRPV1 currents, Hill fit, average±s.e.m., n=10, SEM) of 1.17±0.37. In the data set with Trpv1−/− knockout mice, the “pain behaviour (paw licking) in knockout mice” value was “ineffective”. In [4], the “effect on voltage-gated Ca channels” value is reported as “no detectable effect; also recorded: no discernable response”.
